Here are results for 24 compounds from ChEMBL document CHEMBL5096221, “Discovery of a Highly Potent and Orally Bioavailable STAT3 Dual Phosphorylation Inhibitor for Pancreatic Cancer Treatment” (J Med Chem, 2022).

This assay deals with Signal transducer and activator of transcription 3 (Homo sapiens, UniProt P40763). As to the kind of experiment: Inhibition of STAT3 in human HEK293T cells assessed as inhibition of IL-6 stimulated STAT3 phosphorylation by dual-luciferase reporter assay. Type of assay: cell-based. A general note: A reporter such as luciferase makes a cellular process visible.
Chain of Signal transducer and activator of transcription 3 (P40763 whole entry): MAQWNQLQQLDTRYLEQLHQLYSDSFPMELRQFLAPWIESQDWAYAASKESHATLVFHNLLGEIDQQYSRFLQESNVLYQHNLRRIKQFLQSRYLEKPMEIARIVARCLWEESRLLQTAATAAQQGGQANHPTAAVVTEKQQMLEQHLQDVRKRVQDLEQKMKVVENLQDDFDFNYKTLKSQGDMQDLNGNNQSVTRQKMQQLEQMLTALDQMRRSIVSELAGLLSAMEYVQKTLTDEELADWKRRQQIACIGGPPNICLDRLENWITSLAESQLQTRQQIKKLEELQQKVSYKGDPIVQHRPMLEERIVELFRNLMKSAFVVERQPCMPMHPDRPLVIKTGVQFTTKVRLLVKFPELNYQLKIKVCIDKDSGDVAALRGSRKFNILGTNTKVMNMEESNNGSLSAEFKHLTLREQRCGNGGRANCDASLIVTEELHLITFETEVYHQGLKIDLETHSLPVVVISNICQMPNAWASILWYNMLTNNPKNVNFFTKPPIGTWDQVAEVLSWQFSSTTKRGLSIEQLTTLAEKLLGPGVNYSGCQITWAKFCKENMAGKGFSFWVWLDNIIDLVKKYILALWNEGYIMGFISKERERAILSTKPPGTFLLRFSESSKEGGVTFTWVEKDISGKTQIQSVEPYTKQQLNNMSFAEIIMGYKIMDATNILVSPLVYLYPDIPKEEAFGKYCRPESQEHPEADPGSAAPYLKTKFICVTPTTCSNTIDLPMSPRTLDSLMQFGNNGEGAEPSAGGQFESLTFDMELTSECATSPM
As a reminder, the IC50 is the concentration that inhibits the measured activity by half. In the case of `Cn1c(C(=O)N2CCN(Cc3ccccc3OCC(F)(F)F)CC2)cc2ccc(Oc3cnc(-c4nc(-c5ccc(C(F)(F)F)cc5)no4)cn3)cc21`, the IC50 was over 1000 nM.

Turning to `Cn1c(C(=O)N2CCN(C(=O)CCl)CC2)cc2ccc(Oc3cnc(-c4nc(-c5ccc(C(F)(F)F)cc5)no4)cn3)cc21`, the half-inhibitory concentration (IC50) was over 1000 nM.

`Cn1c(C(=O)N2CCN(C(=O)c3ccc(C(F)(F)F)cc3)CC2)cc2ccc(Oc3cnc(-c4nc(-c5ccc(C(F)(F)F)cc5)no4)cn3)cc21`: the IC50 was over 1000 nM.

With `Cn1c(C(=O)N2CCN(Cc3cccc(OCC(F)(F)F)c3)CC2)cc2ccc(Oc3cnc(-c4nc(-c5ccc(C(F)(F)F)cc5)no4)cn3)cc21`, the half-inhibitory concentration (IC50) is over 1000 nM.

Consider `COC(=O)Cn1c(C(=O)N2CCN(Cc3ccc(OCC(F)(F)F)cc3)CC2)cc2ccc(Oc3cnc(-c4nc(-c5ccc(C(F)(F)F)cc5)no4)cn3)cc21`, for which the half-maximal inhibitory concentration (IC50) is over 1000 nM.

For the compound `COc1ccc(CN2CCN(C(=O)c3cc4ccc(Oc5cnc(-c6nc(-c7ccc(C(F)(F)F)cc7)no6)cn5)cc4n3C)CC2)cc1F`, the IC50 worked out at 134 nM.

For `CC(C)C(=O)n1c(C(=O)N2CCN(Cc3ccc(OCC(F)(F)F)cc3)CC2)cc2ccc(Oc3cnc(-c4nc(-c5ccc(C(F)(F)F)cc5)no4)cn3)cc21`, the IC50 was determined as 337 nM.

Regarding `Cn1c(C(=O)N2CCN(Cc3ccc(OCC(F)(F)F)cc3)CC2)cc2ccc(Oc3cnc(-c4nc(-c5ccccc5)no4)cn3)cc21`, the concentration for half-maximal inhibition (IC50) came to 217 nM.

As for `Cn1c(C(=O)N2CCN(Cc3ccc(OC(F)(F)F)cc3)CC2)cc2ccc(Oc3cnc(-c4nc(-c5ccc(C(F)(F)F)cc5)no4)cn3)cc21`, the 50% inhibitory concentration (IC50) amounted to 76.1 nM.

On to `Cn1c(C(=O)N2CCN(Cc3ccc(F)cc3)CC2)cc2ccc(Oc3cnc(-c4nc(-c5ccc(C(F)(F)F)cc5)no4)cn3)cc21`, for which the IC50 was 427 nM.

Regarding `O=C(c1cc2ccc(Oc3cnc(-c4nc(-c5ccc(C(F)(F)F)cc5)no4)cn3)cc2n1Cc1ccccc1)N1CCN(Cc2ccc(OCC(F)(F)F)cc2)CC1`, the half-maximal inhibitory concentration (IC50) was over 1000 nM.

For the compound `Cn1c(C(=O)N2CCN(C(=O)c3ccc(OCC(F)(F)F)cc3)CC2)cc2ccc(Oc3cnc(-c4nc(-c5ccc(C(F)(F)F)cc5)no4)cn3)cc21`, the IC50 is over 1000 nM.

`Cc1ccc(CN2CCN(C(=O)c3cc4ccc(Oc5cnc(-c6nc(-c7ccc(C(F)(F)F)cc7)no6)cn5)cc4n3C)CC2)cc1`: the IC50 was 492 nM.

With `CN1CCN(C(=O)c2cc3ccc(Oc4cnc(-c5nc(-c6ccc(C(F)(F)F)cc6)no5)cn4)cc3n2C)CC1`, the IC50 was over 1000 nM.

On to `COC(=O)CN1CCN(C(=O)c2cc3ccc(Oc4cnc(-c5nc(-c6ccc(C(F)(F)F)cc6)no5)cn4)cc3n2C)CC1`, for which the IC50 was over 1000 nM.

As for `Cn1c(C(=O)N2CCN(Cc3ccc(Cl)cc3)CC2)cc2ccc(Oc3cnc(-c4nc(-c5ccc(C(F)(F)F)cc5)no4)cn3)cc21`, the 50% inhibitory concentration (IC50) is 649 nM.

Turning to `CCn1c(C(=O)N2CCN(Cc3ccc(OCC(F)(F)F)cc3)CC2)cc2ccc(Oc3cnc(-c4nc(-c5ccc(C(F)(F)F)cc5)no4)cn3)cc21`, the IC50 came out at 167 nM.

For `CCCn1c(C(=O)N2CCN(Cc3ccc(OCC(F)(F)F)cc3)CC2)cc2ccc(Oc3cnc(-c4nc(-c5ccc(C(F)(F)F)cc5)no4)cn3)cc21`, the IC50 stood at 613 nM.

Turning to `Cn1c(C(=O)N2CCN(CCc3ccccc3)CC2)cc2ccc(Oc3cnc(-c4nc(-c5ccc(C(F)(F)F)cc5)no4)cn3)cc21`, the IC50 worked out at 595 nM.

On to `CCCN1CCN(C(=O)c2cc3ccc(Oc4cnc(-c5nc(-c6ccc(C(F)(F)F)cc6)no5)cn4)cc3n2C)CC1`, for which the IC50 is 800 nM.

For `COc1ccc(CN2CCN(C(=O)c3cc4ccc(Oc5cnc(-c6nc(-c7ccc(C(F)(F)F)cc7)no6)cn5)cc4n3C)CC2)cc1`, the IC50 came to 63.6 nM.

In the case of `CCOC(=O)Cn1c(C(=O)N2CCN(Cc3ccc(OCC(F)(F)F)cc3)CC2)cc2ccc(Oc3cnc(-c4nc(-c5ccc(C(F)(F)F)cc5)no4)cn3)cc21`, the IC50 was over 1000 nM.

`Cn1c(C(=O)N2CCN(Cc3ccc(Br)cc3)CC2)cc2ccc(Oc3cnc(-c4nc(-c5ccc(C(F)(F)F)cc5)no4)cn3)cc21`: the concentration for half-maximal inhibition (IC50) is 836 nM.

As for `Cc1cccc(CN2CCN(C(=O)c3cc4ccc(Oc5cnc(-c6nc(-c7ccc(C(F)(F)F)cc7)no6)cn5)cc4n3C)CC2)c1`, the IC50 was over 1000 nM.
